Reference: publication PMC9603588, “Structural Basis of Peptide-Based Antimicrobial Inhibition of a Resistance-Nodulation-Cell Division Multidrug Efflux Pump” (Microbiology Spectrum, 2022)
≈ marks a conversion by molar mass, not a printed value. Where two headings read alike, the source gives them in different places.

Experiments:
N. gonorrhoeae WHO X = test: Nov MIC against gonococci by agar dilution, WHO X; type: cell-based; details: Neisseria gonorrhoeae, strain WHO X
Procedure: (§1) The MICs for Nov were determined by agar dilution as described previously ([53]). The construction of the mtrD::kan transformants was described previously ([3], [61]); note that WHO X was originally termed H041.

[1] = test system: S. enterica subsp. enterica; test: MIC of Nov for S. enterica subsp. enterica; type: cell-based; details: Salmonella enterica
P. aeruginosa = test: MIC of Nov for P. aeruginosa; type: cell-based; details: Pseudomonas aeruginosa
[2] = test system: N. gonorrhoeae WHO X mtrD::kan; test: Nov MIC against gonococci by agar dilution, WHO X mtrD::kan; type: cell-based; details: Neisseria gonorrhoeae
Procedure: as §1

[3] = test system: E. coli BL21(DE3) ΔacrB/pACYCΩmtrCDE; test: MIC of antibiotics for E. coli BL21(DE3) ΔacrB/pACYCΩmtrCDE; type: cell-based; details: Escherichia coli
E. coli K-12 ΔtolC::kan = test: MIC of Nov for E. coli K-12 ΔtolC::kan; type: cell-based; details: Escherichia coli, read-out: MIC of Nov
N. subflava ATCC 49275 = test: MIC of Nov for N. subflava; type: cell-based; details: Neisseria subflava, ATCC49275
E. coli K-12 = test: MIC of Nov for E. coli K-12; type: cell-based; details: Escherichia coli, K12
[4] = test system: N. gonorrhoeae FA19 mtrD::kan; test: Nov MIC against gonococci by agar dilution, FA19 mtrD::kan; type: cell-based; details: Neisseria gonorrhoeae
Procedure: as §1

N. gonorrhoeae FA19 = test: Nov MIC against gonococci by agar dilution, FA19; type: cell-based; details: Neisseria gonorrhoeae, strain FA19
Procedure: as §1

[5] = molecular target: MtrD_(CR103) multidrug efflux pump (MtrD from N. gonorrhoeae strain CR.103) (Neisseria gonorrhoeae strain CR.103) (UniProt Q51073); test: cryo-EM structure; 2 μM MtrD_(CR103)-nanodisc sample incubated with 100 μM CASP, 20 μM Col or 50 μM LL for 2 h; single-particle cryo-EM

Q: How did the MIC (N. gonorrhoeae WHO X) turn out when CO[C@@H]1[C@@H](OC(N)=O)[C@@H](O)[C@H](Oc2ccc3c(O)c(NC(=O)c4ccc(O)c(CC=C(C)C)c4)c(=O)oc3c2C)OC1(C)C [Nov, novobiocin] was run?
A: Its MIC is 1 µg/mL (≈ 1.63 µM).

Q: And the MIC [1]?
A: The MIC was 512 µg/mL.

Q: And the MIC (P. aeruginosa)?
A: Its MIC is over 1000 µg/mL.

Q: And the MIC [2]?
A: The MIC was 0.25 µg/mL (≈ 0.408 µM).

Q: What about the MIC ([3]; read-out: MIC for Nov) of the same compound?
A: The MIC was 125 µg/mL.

Q: And the MIC (E. coli K-12 ΔtolC::kan)?
A: The MIC was 4 µg/mL.

Q: What about the MIC (N. subflava ATCC 49275) of the same compound?
A: The MIC was 1 µg/mL.

Q: What about the MIC (E. coli K-12) of the same compound?
A: Its MIC is over 128 µg/mL.

Q: And the MIC [4]?
A: The MIC was 0.06 µg/mL (≈ 0.0979 µM).

Q: And the MIC (N. gonorrhoeae FA19)?
A: Its MIC is 0.25 µg/mL (≈ 0.408 µM).

Q: How did the MIC ([3]; read-out: MIC of streptomycin) turn out when [H]/N=C(/N)N[C@H]1[C@H](O)[C@@H](O)[C@H](O[C@@H]2O[C@@H](C)[C@](O)(C=O)[C@H]2O[C@@H]2O[C@@H](CO)[C@H](O)[C@@H](O)[C@@H]2NC)[C@@H](N/C(N)=N\[H])[C@@H]1O [streptomycin] was run?
A: The MIC was 8 µg/mL.

Q: Which stoichiometry N [5] does the source give for “MtrD_(CR103) multidrug efflux pump (MtrD from N. gonorrhoeae strain CR.103) (from UniProt Q51073 1-1067) (natural protein)” here?
A: Its stoichiometry N is 3.
